Where two headings read alike, the source gives them in different places. Blank lines part the entries; values can stand above or below the molecule they belong to. The star is where a group is joined. Lys(Fam) = Lys(Fam): lysine whose ε-amino group carries Fam (fluorescein), added using fluorescein-5-isothiocyanate; Dnp = O=[N+]([O-])c1ccc(*)c([N+](=O)[O-])c1; Mca = COc1ccc2c(CC(=O)*)cc(=O)oc2c1
How the values were obtained:
ADAMTS-4 [1] = conditions: ADAMTS-4 aggrecanase activity; cited from earlier work
ADAMTS-1 = ADAMTS-1 aggrecanase activity; cited from earlier work
MMP-2 [2] = target: T1, MMP-2 (Homo sapiens, UniProt P08253); conditions: cited from earlier work
T1 sequence (P08253 110-660): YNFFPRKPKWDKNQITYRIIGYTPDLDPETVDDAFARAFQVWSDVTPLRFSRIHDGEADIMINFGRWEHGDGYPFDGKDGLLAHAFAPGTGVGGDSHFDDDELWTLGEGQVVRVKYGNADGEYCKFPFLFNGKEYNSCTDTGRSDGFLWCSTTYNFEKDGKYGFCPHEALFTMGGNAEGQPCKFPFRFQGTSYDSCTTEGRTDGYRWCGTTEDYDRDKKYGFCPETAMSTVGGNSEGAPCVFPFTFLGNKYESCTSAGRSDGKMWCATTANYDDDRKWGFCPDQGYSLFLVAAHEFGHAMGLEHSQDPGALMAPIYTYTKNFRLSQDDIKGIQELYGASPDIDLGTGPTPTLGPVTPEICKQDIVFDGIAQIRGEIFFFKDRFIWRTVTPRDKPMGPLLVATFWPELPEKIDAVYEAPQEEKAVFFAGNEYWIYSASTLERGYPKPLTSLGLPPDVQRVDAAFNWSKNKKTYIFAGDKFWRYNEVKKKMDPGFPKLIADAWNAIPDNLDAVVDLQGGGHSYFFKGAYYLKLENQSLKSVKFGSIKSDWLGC

MMP-7 = conditions: cited from earlier work
MMP-9 [3] = target: T2, MMP-9 (Homo sapiens, UniProt P14780); conditions: cited from earlier work
MT1-MMP = conditions: cited from earlier work
MMP-1 [4] = conditions: MMP-1, inhibitor concentration 50 μM; cited from earlier work
MMP-13 = conditions: MMP-13, inhibitor concentration 50 μM; cited from earlier work
ADAM-10 = conditions: ADAM-10, inhibitor concentration 50 μM; cited from earlier work
ADAMTS-5 [5] = target: T3, ADAMTS-5 (Homo sapiens, UniProt Q9UNA0); test: ADAMTS-5 inhibition, RP-HPLC analysis of cleavage products; format: biochemical; conditions: ADAMTS-5, data not shown
T3 sequence (Q9UNA0 262-731 limits assumed): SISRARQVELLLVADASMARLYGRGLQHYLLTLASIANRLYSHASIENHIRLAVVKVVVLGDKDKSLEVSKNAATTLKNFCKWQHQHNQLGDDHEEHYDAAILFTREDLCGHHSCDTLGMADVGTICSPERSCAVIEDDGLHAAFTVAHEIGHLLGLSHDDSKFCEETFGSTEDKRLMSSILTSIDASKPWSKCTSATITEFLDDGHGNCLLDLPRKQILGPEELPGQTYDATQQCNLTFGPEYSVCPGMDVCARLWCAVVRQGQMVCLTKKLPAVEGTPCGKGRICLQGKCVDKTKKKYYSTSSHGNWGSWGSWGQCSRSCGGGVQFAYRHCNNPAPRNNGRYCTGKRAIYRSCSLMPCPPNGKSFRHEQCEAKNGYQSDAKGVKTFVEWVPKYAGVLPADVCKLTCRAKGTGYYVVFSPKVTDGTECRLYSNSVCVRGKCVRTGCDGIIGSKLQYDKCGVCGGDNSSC

MMP-2 [6] = target: T1, MMP-2; test: MMP-2 inhibition assay with FRET substrates; format: biochemical
ADAMTS-4 (aggrecanase-1) [7] = target: T4, ADAMTS-4 (aggrecanase-1) (Homo sapiens, UniProt O75173); test: ADAMTS-4 inhibition assay, FRET substrate hydrolysis; format: biochemical
T4 sequence (O75173 213-685 limits assumed): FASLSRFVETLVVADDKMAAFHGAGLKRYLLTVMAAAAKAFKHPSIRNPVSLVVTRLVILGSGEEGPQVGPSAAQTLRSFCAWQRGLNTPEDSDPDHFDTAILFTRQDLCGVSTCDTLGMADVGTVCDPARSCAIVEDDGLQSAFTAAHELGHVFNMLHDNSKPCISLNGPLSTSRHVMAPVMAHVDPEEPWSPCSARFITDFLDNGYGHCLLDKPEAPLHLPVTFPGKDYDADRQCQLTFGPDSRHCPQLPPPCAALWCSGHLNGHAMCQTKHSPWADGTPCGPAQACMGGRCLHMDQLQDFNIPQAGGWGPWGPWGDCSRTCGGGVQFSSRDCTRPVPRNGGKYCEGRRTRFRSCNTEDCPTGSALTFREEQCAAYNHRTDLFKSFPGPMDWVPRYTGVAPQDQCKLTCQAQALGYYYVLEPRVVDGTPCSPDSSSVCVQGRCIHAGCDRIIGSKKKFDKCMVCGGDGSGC

ADAMTS-4 (aggrecanase-1) [8] = target: T4, ADAMTS-4 (aggrecanase-1); test: ADAMTS-4 inhibition, RP-HPLC analysis of cleavage products
ADAMTS-5 [9] = target: T3, ADAMTS-5; test: ADAMTS-5 inhibition assay, FRET substrate hydrolysis; format: biochemical
MMP-8 [10] = target: T5, MMP-8 (Homo sapiens, UniProt P22894); test: MMP-8 inhibition assay with FRET substrates; format: biochemical
MMP-9 [11] = target: T2, MMP-9; test: MMP-9 inhibition assay with FRET substrates; format: biochemical; conditions: MMP-9, substrate fMMPSlong
MMP-12 [12] = target: T6, MMP-12 (Homo sapiens, UniProt P39900); test: MMP-12 inhibition assay with FRET substrates; format: biochemical; conditions: MMP-12, substrate fMMPSshort
MMP-2 [13] = target: T1, MMP-2; conditions: cited from earlier work; remark: listed apart in the source
MMP-1 [14] = conditions: cited from earlier work
MMP-9 [15] = target: T2, MMP-9; conditions: cited from earlier work; remark: listed apart in the source
MMP-8 [16] = target: T5, MMP-8; conditions: read-out: KM value for MMP hydrolysis; cited from earlier work
MMP-2 [17] = target: T1, MMP-2; conditions: read-out: KM value for MMP hydrolysis; cited from earlier work
ADAMTS-4 [18] = conditions: read-out: KM value for ADAMTS-4 hydrolysis; substrate kinetics; cited from earlier work
MMP-9 [19] = target: T2, MMP-9; conditions: read-out: KM value for MMP hydrolysis; cited from earlier work
MMP-12 [20] = target: T6, MMP-12; conditions: read-out: KM value for MMP hydrolysis; cited from earlier work

T2 sequence (P14780 94-707, species assumed): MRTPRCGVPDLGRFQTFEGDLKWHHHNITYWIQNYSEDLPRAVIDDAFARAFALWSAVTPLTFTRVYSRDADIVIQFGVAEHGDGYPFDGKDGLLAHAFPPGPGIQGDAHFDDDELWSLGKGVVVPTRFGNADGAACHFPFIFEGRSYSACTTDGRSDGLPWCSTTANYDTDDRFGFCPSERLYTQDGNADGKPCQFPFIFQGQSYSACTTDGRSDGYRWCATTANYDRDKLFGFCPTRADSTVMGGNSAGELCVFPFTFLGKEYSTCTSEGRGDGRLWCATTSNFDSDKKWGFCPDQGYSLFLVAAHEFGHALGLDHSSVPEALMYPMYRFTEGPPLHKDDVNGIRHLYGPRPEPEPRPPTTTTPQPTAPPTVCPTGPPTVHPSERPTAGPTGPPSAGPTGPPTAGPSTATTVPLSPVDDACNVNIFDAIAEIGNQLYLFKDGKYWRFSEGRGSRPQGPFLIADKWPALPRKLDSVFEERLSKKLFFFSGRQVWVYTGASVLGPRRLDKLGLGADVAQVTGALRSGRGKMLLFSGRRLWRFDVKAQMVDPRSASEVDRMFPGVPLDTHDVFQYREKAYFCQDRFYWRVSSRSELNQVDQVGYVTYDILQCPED
T5 sequence (P22894 101-467, species assumed): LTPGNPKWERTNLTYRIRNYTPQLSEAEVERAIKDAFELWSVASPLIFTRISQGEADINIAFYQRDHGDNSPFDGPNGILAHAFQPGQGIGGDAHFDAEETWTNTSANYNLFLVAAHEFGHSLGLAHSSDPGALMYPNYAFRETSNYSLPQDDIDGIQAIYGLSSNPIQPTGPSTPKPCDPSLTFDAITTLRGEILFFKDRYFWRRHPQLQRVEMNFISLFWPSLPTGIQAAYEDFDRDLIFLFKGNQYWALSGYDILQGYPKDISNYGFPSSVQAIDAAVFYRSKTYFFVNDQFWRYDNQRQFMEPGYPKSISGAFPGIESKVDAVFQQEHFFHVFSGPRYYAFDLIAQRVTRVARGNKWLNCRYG
T6 sequence (P39900 106-470, species assumed): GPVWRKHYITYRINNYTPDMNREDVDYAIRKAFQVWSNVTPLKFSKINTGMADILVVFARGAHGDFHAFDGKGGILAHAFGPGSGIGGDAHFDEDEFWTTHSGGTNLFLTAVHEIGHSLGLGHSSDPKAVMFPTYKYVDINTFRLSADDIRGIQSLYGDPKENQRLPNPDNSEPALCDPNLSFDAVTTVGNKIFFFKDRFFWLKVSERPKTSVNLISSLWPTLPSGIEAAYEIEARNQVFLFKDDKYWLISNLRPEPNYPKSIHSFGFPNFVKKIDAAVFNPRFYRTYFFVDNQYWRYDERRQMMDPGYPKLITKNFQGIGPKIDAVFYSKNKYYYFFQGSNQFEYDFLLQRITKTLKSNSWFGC

Molecule: O=C(O[C@@H]1Cc2c(O)cc(O)cc2O[C@@H]1c1cc(O)c(O)c(O)c1)c1cc(O)c(O)c(O)c1 [Compound 1, (−)-epigallocatechin gallate]
- IC50 (ADAMTS-4 [1]): 100 to 150 nM
- IC50 (ADAMTS-1): 200 to 250 nM
- IC50 (MMP-2 [2]; MMP-2): 6 to 8 µM
- IC50 (MMP-7): 1600 nM
- IC50 (MMP-9 [3]; MMP-9): 0.8 to 13 µM
- IC50 (MT1-MMP): 19 nM
- inhibition (MMP-1 [4]): 14–30%
- inhibition (MMP-13): 14–30%
- inhibition (ADAM-10): 14–30%

Molecule: O=C(O[C@@H]1Cc2c(O)cc(O)cc2O[C@@H]1c1ccc(O)c(O)c1)c1cc(O)c(O)c(O)c1 [Compound 2, (−)-epicatechin gallate]
- IC50 (ADAMTS-4 [1]): 100 to 150 nM
- IC50 (ADAMTS-1): 200 to 250 nM
- inhibition (MMP-1 [4]): 14–30%
- inhibition (MMP-13): 14–30%
- inhibition (ADAM-10): 14–30%

- inhibition of substrate hydrolysis by RP-HPLC analysis (ADAMTS-5 [5]): inhibited
- Ki (MMP-2 [6]; MMP-2, substrate fMMPSlong): 10 ± 0.89 µM
- Ki (MMP-2 [6]; MMP-2, substrate fMMPSshort): 12.2 ± 1.82 µM
Molecule: Oc1cc(O)cc(/C=C/c2ccc(O)c(O)c2)c1 [Compound 3, (E)-4-[2-(3,5-dihydroxyphenyl)ethenyl]1,2-benzediol]

- IC50 (ADAMTS-4 (aggrecanase-1) [7]): 50 µM
- IC50 (ADAMTS-4 (aggrecanase-1) [8]): > 100 µM
Molecule: Oc1ccc(/C=C/c2cc(O)cc(O)c2)cc1 [Compound 4, 5-[(1E)-2-(4-hydroxyphenyl)ethenyl]-1,3-benzenediol]
- inhibition of MMP-2 (MMP-2 [2]; prior study): not an inhibitor
- inhibition of MMP-9 (MMP-9 [3]; prior study): not an inhibitor

- IC50 (ADAMTS-4 (aggrecanase-1) [7]): > 100 µM
- IC50 (ADAMTS-4 (aggrecanase-1) [8]): > 100 µM
Molecule: C(=C\c1ccccc1)/c1ccccc1 [Compound 5, trans-1,2-diphenylethylene]

- IC50 (ADAMTS-4 (aggrecanase-1) [7]): ~100 µM
- IC50 (ADAMTS-4 (aggrecanase-1) [8]): > 100 µM
Molecule: C(=C/c1ccccc1)/c1ccccc1 [Compound 6, cis-1,2-diphenylethylene]

- IC50 (ADAMTS-4 (aggrecanase-1) [7]): 20 µM
- IC50 (ADAMTS-4 (aggrecanase-1) [8]): > 100 µM
Molecule: COc1ccc(/C=C/c2cc(O)cc(OC3OC(CO)C(O)C(O)C3O)c2)cc1 (stereo not shown) [Compound 7, 2-[3-hydroxy-5-[(E)-2-(4-methoxyphenyl)ethenyl]phenoxy]-6-(hydroxymethyl)oxane-3,4,5-triol]

- IC50 (ADAMTS-4 (aggrecanase-1) [7]): 50 µM
- IC50 (ADAMTS-4 (aggrecanase-1) [8]): > 100 µM
Molecule: COc1ccc(C=Cc2cc(O)cc(OC3OC(CO)C(O)C(O)C3O)c2)cc1O (stereo not shown) [Compound 8, 2-[3-hydroxy-5-[2-(3-hydroxy-4-methoxyphenyl)ethenyl]phenoxy]-6-(hydroxymethyl)oxane-3,4,5-triol]

- IC50 (ADAMTS-4 (aggrecanase-1) [7]): 20 µM
- IC50 (ADAMTS-4 (aggrecanase-1) [8]): > 100 µM
Molecule: Oc1ccccc1O [Compound 9, 1,2-dihydroxybenzene]

- inhibition of substrate hydrolysis by fluorescence analysis (ADAMTS-5 [9]; ADAMTS-5, data not shown): inhibited
- Ki (ADAMTS-5 [9]; Ki, ADAMTS-5, substrate fTSSshort, apparent Ki): 36.9 ± 8.82 µM
- inhibition of substrate hydrolysis by RP-HPLC analysis (ADAMTS-5 [5]): inhibited
- Ki (MMP-2 [6]; MMP-2, substrate fMMPSshort): 11.3 ± 0.52 µM
- Ki (MMP-8 [10]): 10.3 ± 0.94 µM
- Ki (MMP-9 [11]): 8.29 ± 0.63 µM
- Ki (MMP-12 [12]): 34.4 ± 3.99 µM
Molecule: Oc1cccc(O)c1O [Compound 10, 1,2,3-trihydroxybenzene]

Molecule: O=c1cc(-c2ccc(O)cc2)oc2cc(O)cc(O)c12 [apigenin]
- EC50 (MMP-2 [13]): 7.5 µM
- IC50 (MMP-1 [14]): > 100 µM

Molecule: O=c1c(O)c(-c2ccc(O)cc2)oc2cc(O)cc(O)c12 [kaempferol]
- IC50 (MMP-1 [14]): 43.7 µM

Molecule: O=c1cc(-c2ccc(O)c(O)c2)oc2cc(O[C@@H]3O[C@H](CO)[C@@H](O)[C@H](O)[C@H]3O)cc(O)c12 [luteolin-7-O-glucoside]
- EC50 (MMP-9 [15]; MMP-9): 4.6 µM

Molecule: O=c1cc(-c2ccc(O)c(O)c2)oc2cc(O)cc(O)c12 [luteolin]
- Ki (MMP-9 [15]; MMP-9, noncompetitive mechanism): 5.4 µM

Molecule: O=c1c(O)c(-c2ccc(O)c(O)c2)oc2cc(O)cc(O)c12 [quercetin]
- IC50 (MMP-1 [14]): 39.6 µM

Molecule: (Gly-Pro-Hyp)5-Gly-Pro-Lys(Mca)-Gly-Pro-Gln-Gly~Leu-Arg-Gly-Gln-Lys(Dnp)-Gly-Val-Arg-(Gly-Pro-Hyp)5-NH2 [fMMPSlong]
- Km (MMP-8 [16]): 7.6 µM
- Km (MMP-2 [17]): 17.2 µM

Molecule: Lys(Fam)-Asp-Val-Gln-Glu-Phe-Arg-Gly-Val-Thr-Ala-Val-Ile-Arg-Lys(Tamra)-Lys-Gly-Lys-NH2 ({Lys(Fam)}-DVQEFRGVTAVIRK(Tamra)KGK-NH2) [fTSS1]
- Km (ADAMTS-4 [18]): ~35 µM

Molecule: Mca-Lys-Pro-Leu-Gly-Leu-Lys(Dnp)-Ala-Arg-NH2 (Mca-KPLGLK(Dnp)AR-NH2; SMILES COc1ccc2c(CC(=O)N[C@@H](CCCCN)C(=O)N3CCC[C@H]3C(=O)N[C@@H](CC(C)C)C(=O)NCC(=O)N[C@@H](CC(C)C)C(=O)N[C@@H](CCCCNc3ccc([N+](=O)[O-])cc3[N+](=O)[O-])C(=O)N[C@@H](C)C(=O)N[C@@H](CCCNC(=N)N)C(N)=O)cc(=O)oc2c1) [fMMPSshort]
- Km (MMP-9 [19]): 27.7 µM
- Km (MMP-12 [20]): 130 µM

Reference: PMC2782546 (Chemical biology & drug design, 2009)
